US20230055021A1, “METHODS FOR TREATING PSYCHIATRIC DISORDERS OR SYMPTOMS THEREOF USING NCAM PEPTIDE MIMETICS” (The Board of Trustees of the Leland Stanford Junior …, priority 2012, published 2023)

Columns and labels:
adult rats [1] = assay: forced swim test (FST), depression-like behavior; type: in vivo
Method: The NCAM peptide mimetic FGLm (5 μg) or vehicle was administered intracerebroventricularly (i.c.v.) to adult rats. […]
FGLL (10 mg/kg, s.c.) or control was also administered to adult rats via injection every 24 hours for 16 days. Animals were tested for locomotion on Day 13, tested for anxiety-like behavior with the EPM on Day 14, tested for depression-like behavior with the FST on Days 15 and 16, and sacrificed on Day 17. […]

adult rats [2] = assay: elevated plus maze (EPM), anxiety-like behavior; type: in vivo; settings: 1, 5 or 10 mg/kg s.c., injected 30 minutes before test
Method: The NCAM peptide mimetic FGLL (1 mg/kg, 5 mg/kg, or 10 mg/kg) or control was administered subcutaneously (s.c.) to adult rats. For the elevated plus maze (EPM), which measures anxiety-like behavior, animals were injected 30 minutes before the test. For the FST, which measures depression-like behavior, animals were injected 1 hour and 5 hours after Day 1 and 30 minutes before Day 2.
The NCAM peptide mimetic plannexin (10 mg/kg) or vehicle control was acutely administered intraperitoneally (i.p.) to adult rats.
Plannexin (10 mg/kg, i.p.) or control was also chronically administered to adult rats via injection every 48 hours on odd days. Animals were tested for locomotion on Day 13, tested for anxiety-like behavior with the EPM on Day 14, tested for depression-like behavior with the FST on Days 15 and 16, and sacrificed on Day 17.

[3] = 10 mg/kg s.c. every 24 hours for 16 days, FST on Days 15 and 16

Compound	effect on depression as measured by the FST (adult rats [1]; 5 μg i.c.v., vs vehicle)	immobility in FST (adult rats [1]; 5 μg i.c.v., vs vehicle)	swimming in FST (adult rats [1]; 5 μg i.c.v., vs vehicle)	climbing in FST (adult rats [1]; [3])	effect on depression as measured by the FST (adult rats [1]; [3])	immobility in FST (adult rats [1]; [3])	effect on anxiety as measured by the EPM (adult rats [2])	time spent in the Closed parts of the EPM (adult rats [2]; effect at higher doses)
EVYVVAENQQGKSKA [FGLm, NCAM peptide mimetic]	decreased depression	less immobility	significantly more swimming	–	–	–	–	–
CC(C)[C@H](NC(=O)[C@H](CCC(=O)O)NC(=O)CNCC(=O)N[C@@H](CCC(=O)O)C(=O)N[C@H](C(=O)N[C@H](C(=O)N[C@@H](C)C(=O)N[C@@H](CCC(=O)O)C(=O)N[C@@H](CC(N)=O)C(=O)N[C@@H](CCC(N)=O)C(=O)N[C@@H](CCC(N)=O)C(=O)NCC(=O)N[C@@H](CCCCN)C(=O)N[C@@H](CO)C(=O)N[C@@H](CCCCN)C(=O)N[C@@H](C)C(N)=O)C(C)C)C(C)C)C(=O)N[C@H](C(=O)N[C@@H](C)C(=O)N[C@@H](CCC(=O)O)C(=O)N[C@@H](CC(N)=O)C(=O)N[C@@H](CCC(N)=O)C(=O)N[C@@H](CCC(N)=O)C(=O)NCC(=O)N[C@@H](CCCCN)C(=O)N[C@@H](CO)C(=O)N[C@@H](CCCCN)C(=O)N[C@@H](C)C(N)=O)C(C)C (stereo in doubt) [FGLL]	–	–	–	significantly more climbing	decreased depression	less immobility	increased anxiety	significantly increased
